Measured values: ChEMBL document CHEMBL2074358, “Differential gene expression of organic anion transporters in male and female rats” (Biochem Biophys Res Commun, 2002)

How the values were obtained:
[1] = biological target: T1, Organic anion transporter 3 (Rattus norvegicus, UniProt Q9R1U7); assay: (§1) TP_TRANSPORTER: Northern blot in vivo, kidney of Wistar rat; format: functional, organism-based
T1 sequence (Q9R1U7 whole entry): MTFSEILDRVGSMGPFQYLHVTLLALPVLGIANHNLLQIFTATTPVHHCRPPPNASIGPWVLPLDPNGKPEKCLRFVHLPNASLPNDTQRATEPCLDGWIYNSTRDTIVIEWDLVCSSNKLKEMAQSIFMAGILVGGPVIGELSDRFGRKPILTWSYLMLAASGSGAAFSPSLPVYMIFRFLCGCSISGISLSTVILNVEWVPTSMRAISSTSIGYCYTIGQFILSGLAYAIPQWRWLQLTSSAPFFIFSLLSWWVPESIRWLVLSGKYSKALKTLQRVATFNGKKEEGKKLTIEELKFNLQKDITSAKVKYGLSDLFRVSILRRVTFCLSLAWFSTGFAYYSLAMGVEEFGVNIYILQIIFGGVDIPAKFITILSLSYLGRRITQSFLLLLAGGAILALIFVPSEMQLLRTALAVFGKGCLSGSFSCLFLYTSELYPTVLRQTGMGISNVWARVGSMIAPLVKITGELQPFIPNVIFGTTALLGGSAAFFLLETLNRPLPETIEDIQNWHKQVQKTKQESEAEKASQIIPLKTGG

[2] = biological target: T2, Solute carrier family 22 member 7 (Rattus norvegicus, UniProt Q5RLM2); assay: as §1; format: functional, organism-based
T2 sequence (Q5RLM2 whole entry): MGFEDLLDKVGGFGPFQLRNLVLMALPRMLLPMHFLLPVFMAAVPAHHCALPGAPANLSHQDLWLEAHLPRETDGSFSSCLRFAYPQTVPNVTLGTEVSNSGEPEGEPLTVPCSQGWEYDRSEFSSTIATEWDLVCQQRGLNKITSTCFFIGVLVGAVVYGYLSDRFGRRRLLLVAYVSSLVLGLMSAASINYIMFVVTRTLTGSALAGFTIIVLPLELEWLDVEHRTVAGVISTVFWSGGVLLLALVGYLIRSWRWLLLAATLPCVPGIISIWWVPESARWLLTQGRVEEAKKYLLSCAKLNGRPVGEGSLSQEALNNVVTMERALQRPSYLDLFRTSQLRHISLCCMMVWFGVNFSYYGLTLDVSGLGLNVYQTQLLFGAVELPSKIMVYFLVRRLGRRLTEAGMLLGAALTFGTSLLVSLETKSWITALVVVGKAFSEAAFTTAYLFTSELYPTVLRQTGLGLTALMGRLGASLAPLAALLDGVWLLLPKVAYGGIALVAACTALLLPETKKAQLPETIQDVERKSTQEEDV

C[C@]12CC[C@H]3[C@@H](CCC4=CC(=O)CC[C@@]43C)[C@@H]1CC[C@@H]2O [TESTOSTERONE]
Activity [1]: inducer [+] | Activity [2]: inducer [Decrease]
